{
  "source": "paper PMC9354638",
  "about": "“Targeting p21-activated kinase 4 (PAK4) with pyrazolo[3,4-d]pyrimidine derivative SPA7012 attenuates hepatic ischaemia-reperfusion injury in mice” (Journal of Enzyme Inhibition and Medicinal Chemistry, 2022)",
  "key": {"[1]": {"system": "Nrf2 transcriptional activity (ARE)", "test": "Nrf2 reporter gene assay (ARE luciferase) in HEK293T cells", "type": "cell-based, human", "conditions": "24 h transfection", "method": "(§1) The human embryonic kidney cell line HEK293T was obtained from the American Type Culture Collection (Manassas, VA, USA). For the Nrf2 reporter gene assay, 1 μg of a plasmid containing a promoter with an ARE driving luciferase expression was used. Exogenous proteins were expressed by transfecting HEK293T cells with 1 μg of Nrf2 and PAK4 with Lipofectamine 3000 (Invitrogen, Carlsbad, CA, USA). Luciferase activity was measured using a Dual-Luciferase Reporter Assay (Promega, Madison, WI, USA) by Lumat LB 9507 (Berthold, Bad Wildbad, Germany)."}, "[2]": {"system": "PAK4-mediated phosphorylation of Nrf2", "test": "Co-IP analysis of PAK4-mediated Nrf2 phosphorylation in HEK293T cells", "type": "cell-based, human", "conditions": "HEK293T cells overexpressing Nrf2 and PAK4, 24 h transfection", "method": "as §1\nNuclear and cytoplasmic fractions were prepared using the NE-PER Nuclear and Cytoplasmic Extraction kit (Thermo Fisher Scientific, Waltham, MA, USA). Tissue homogenates or cell lysates (15 μg) were separated by 6–14% SDS-PAGE and transferred to PVDF membranes. […] Immunoreactive bands were detected with a Las-4000 imager (GE Healthcare Life Science, Pittsburgh, PA, USA)."}, "PAK4": {"molecular_target": "T1, PAK4 (Homo sapiens, UniProt O96013)", "T1 construct": "purchased Reaction Biology Corporation (Malvern, PA, USA)", "T1 sequence (O96013 whole entry)": "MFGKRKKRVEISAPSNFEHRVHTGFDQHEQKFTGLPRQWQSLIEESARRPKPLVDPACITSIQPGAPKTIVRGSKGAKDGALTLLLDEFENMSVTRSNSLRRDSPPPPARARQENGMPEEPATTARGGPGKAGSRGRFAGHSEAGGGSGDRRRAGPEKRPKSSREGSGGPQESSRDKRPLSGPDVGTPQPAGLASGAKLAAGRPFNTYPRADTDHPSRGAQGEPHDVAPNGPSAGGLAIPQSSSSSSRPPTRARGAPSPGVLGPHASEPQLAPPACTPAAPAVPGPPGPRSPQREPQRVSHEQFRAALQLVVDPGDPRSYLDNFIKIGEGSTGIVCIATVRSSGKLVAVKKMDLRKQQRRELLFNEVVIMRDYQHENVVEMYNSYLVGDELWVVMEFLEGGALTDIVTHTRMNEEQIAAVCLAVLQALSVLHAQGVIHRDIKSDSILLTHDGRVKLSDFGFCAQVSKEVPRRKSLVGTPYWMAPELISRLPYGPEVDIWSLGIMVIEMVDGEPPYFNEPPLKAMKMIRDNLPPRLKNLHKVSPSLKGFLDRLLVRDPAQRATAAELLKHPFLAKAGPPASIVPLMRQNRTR", "test": "HotSpot kinase assay (Reaction Biology Corp.), PAK4 enzyme inhibition", "type": "biochemical", "conditions": "ATP 10 μM", "method": "(§2) To examine the enzyme activity, HotSpot kinase assay was performed at Reaction Biology Corporation (Malvern, PA, USA). The kinase and substrate pairs were prepared in reaction buffer: 20 mM HEPES at pH 7.5, 10 mM MgCl2, 1 mM EGTA, 0.02% Brij 35, 0.02 mg/mL BSA, 0.1 mM Na3VO4, 2 mM DTT, and 1% DMSO. Compounds were added into the kinase reaction mixture and incubated for 20 min. Then, ^32 P-ATP was introduced to the mixture to initiate the reaction carried out at 10 μM of ATP concentration. After 2 h at room temperature, the mixture was spotted onto P81 ion exchange paper and kinase activity was then evaluated utilising the filter-binding method. Compounds were tested for single dose enzyme inhibition at a concentration of 20 μM. For the control compound, staurosporine was tested in a 10-dose IC50 mode. To determine the IC50 value, the compounds were tested for 10-doses with 3-fold serial dilution starting at 100 μM.\n(§3) Synthesised compounds were evaluated for their in vitro PAK4 enzyme inhibitory activities. In vitro kinase assays were performed using HotSpot kinase assays for relative enzyme inhibitory activity at a single concentration (20 μM) and IC50 assessment at an ATP concentration of 10 μM (Figure 1(B)). […] For the allosteric pocket binder, cyclohexyl group (SPA7012) was preferable to the smaller dimethyl (SPA7011) or hydroxymethyl group (SPA7013), and the aromatic ring (SPA7014) reduced activity compared to the saturated ring (SPA7012). In vitro enzyme IC50 values appeared in the order of SPA7012, SPA7017, and SPA7016. […] Molecular docking analysis was performed on the human PAK4 catalytic domain structure complexed with GNE-2861 (PDB code: 4O0V). The binding pose of SPA7012 overlapped well with the crystal structure of GNE-2861, with the allosteric binder properly positioned in the specific back pocket. The oxygen atom in the tertiary alcohol of the hydrophobic allosteric binder formed hydrogen bonds with the backbone of Phe459 and the side chain of Glu366 (Figure 1(D)). The amine group and nitrogen atom in the pyrazolo[3,4-d]pyrimidine core scaffold also formed hydrogen bonds with Lue398 at the hinge region. Finally, SPA7012 was decided as a lead compound for further examination with satisfactory potency and subtype selectivity."}, "PAK2": {"molecular_target": "T2, PAK2 (Homo sapiens, UniProt Q13177)", "T2 construct": "purchased Reaction Biology Corporation (Malvern, PA, USA)", "T2 sequence (Q13177 whole entry)": "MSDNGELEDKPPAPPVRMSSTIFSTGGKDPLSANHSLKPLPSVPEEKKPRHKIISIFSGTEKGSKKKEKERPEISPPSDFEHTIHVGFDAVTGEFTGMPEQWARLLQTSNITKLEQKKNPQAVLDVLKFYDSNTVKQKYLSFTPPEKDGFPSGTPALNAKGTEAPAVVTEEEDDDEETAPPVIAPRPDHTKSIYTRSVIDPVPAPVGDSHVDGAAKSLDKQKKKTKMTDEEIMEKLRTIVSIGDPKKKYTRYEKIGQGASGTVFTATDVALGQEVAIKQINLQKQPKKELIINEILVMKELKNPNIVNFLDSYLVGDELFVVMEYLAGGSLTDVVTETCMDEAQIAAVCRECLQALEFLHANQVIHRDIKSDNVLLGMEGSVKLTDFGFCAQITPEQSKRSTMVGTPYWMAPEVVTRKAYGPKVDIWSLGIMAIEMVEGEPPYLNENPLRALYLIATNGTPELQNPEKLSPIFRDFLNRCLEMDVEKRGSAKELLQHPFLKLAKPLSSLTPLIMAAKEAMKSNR", "test": "HotSpot kinase assay, PAK subtype selectivity", "type": "biochemical", "conditions": "relative percentage inhibition at 20 μM with staurosporine", "method": "as §2, §3"}, "PAK6": {"molecular_target": "T3, PAK6 (Homo sapiens, UniProt Q9NQU5)", "T3 construct": "purchased Reaction Biology Corporation (Malvern, PA, USA)", "T3 sequence (Q9NQU5 whole entry)": "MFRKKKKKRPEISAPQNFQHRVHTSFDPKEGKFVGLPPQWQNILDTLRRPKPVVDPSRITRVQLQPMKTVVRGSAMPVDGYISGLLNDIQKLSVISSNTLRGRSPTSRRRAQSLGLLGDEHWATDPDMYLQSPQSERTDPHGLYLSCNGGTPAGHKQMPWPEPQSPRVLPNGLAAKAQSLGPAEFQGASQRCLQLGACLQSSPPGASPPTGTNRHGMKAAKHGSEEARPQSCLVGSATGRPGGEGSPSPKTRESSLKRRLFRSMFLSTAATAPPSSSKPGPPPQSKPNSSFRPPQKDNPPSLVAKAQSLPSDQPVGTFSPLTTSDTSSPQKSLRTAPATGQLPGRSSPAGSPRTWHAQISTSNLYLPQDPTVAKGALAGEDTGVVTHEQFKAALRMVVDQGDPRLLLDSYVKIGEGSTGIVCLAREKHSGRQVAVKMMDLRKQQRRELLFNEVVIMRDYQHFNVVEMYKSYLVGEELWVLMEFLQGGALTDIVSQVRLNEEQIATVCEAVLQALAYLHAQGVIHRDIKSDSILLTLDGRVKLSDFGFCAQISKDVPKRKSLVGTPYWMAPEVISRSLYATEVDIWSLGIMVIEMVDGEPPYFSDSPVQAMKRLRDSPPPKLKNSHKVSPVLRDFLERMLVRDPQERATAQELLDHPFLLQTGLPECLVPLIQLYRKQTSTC", "test": "HotSpot kinase assay, PAK subtype selectivity", "type": "biochemical", "conditions": "relative percentage inhibition at 20 μM with staurosporine", "method": "as §2, §3"}, "PAK5": {"molecular_target": "T4, PAK5 (Homo sapiens, UniProt Q9P286)", "T4 construct": "purchased Reaction Biology Corporation (Malvern, PA, USA)", "T4 sequence (Q9P286 whole entry)": "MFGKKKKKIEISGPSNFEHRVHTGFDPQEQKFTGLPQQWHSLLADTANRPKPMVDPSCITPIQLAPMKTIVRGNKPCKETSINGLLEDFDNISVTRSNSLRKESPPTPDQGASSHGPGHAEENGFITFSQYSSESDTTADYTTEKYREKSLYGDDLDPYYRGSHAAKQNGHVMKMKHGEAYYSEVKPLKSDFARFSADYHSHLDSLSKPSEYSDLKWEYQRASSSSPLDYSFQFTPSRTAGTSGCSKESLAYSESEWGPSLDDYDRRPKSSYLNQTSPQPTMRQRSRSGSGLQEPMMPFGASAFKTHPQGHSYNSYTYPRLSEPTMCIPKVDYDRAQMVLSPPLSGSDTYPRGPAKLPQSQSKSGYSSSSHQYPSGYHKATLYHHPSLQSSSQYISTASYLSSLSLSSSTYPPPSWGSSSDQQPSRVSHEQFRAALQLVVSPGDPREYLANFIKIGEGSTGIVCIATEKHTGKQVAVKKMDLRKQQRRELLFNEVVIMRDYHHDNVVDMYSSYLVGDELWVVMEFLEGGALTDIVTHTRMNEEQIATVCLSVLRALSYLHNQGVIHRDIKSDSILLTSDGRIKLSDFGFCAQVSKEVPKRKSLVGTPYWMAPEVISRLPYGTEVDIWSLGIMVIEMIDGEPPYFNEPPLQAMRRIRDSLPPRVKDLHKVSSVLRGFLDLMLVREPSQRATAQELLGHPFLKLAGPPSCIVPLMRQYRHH", "test": "HotSpot kinase assay, PAK subtype selectivity", "type": "biochemical", "method": "as §2, §3"}},
  "data": [
    {"compound": "Cc1nn(-c2cccc(C#CC3(O)CCCCC3)c2)c2ncnc(N)c12", "note": "[Compound 14b, 3-(4-Amino-3-methylpyrazolo[3,4-d]pyrimidin-1-yl)phenylethynylcyclohexan-1-ol]", "values": [
      {"measurement": "Nrf2 transcriptional activity (ARE luciferase activity)", "setting": "[1]", "value": "increased"},
      {"measurement": "PAK4-mediated phosphorylation of Nrf2 at threonine residue", "setting": "[2]", "value": "effectively inhibited"},
      {"measurement": "IC50", "setting": "PAK4; 10-dose, 3-fold serial dilution starting at 100 μM", "value": 770, "unit": "nM"},
      {"measurement": "inhibition at 20 µM", "setting": "PAK4; relative percentage inhibition at 20 μM of compounds with staurosporine, read-out: PAK4 enzyme inhibition % inhibitory activity", "value": 97, "unit": "%"},
      {"measurement": "PAK2 % inhibitory activity", "setting": "PAK2", "value": 36, "unit": "%"},
      {"measurement": "PAK6 % inhibitory activity", "setting": "PAK6", "value": 36, "unit": "%"},
      {"measurement": "IC50", "setting": "PAK5; HotSpot kinase assay", "value": "> 100000", "unit": "nM"},
      {"measurement": "PAK5 % inhibitory activity", "setting": "PAK5; relative percentage inhibition at 20 μM with staurosporine", "value": 52, "unit": "%"}
    ]}
  ]
}
